What was measured:
A549 = test: Cytotoxicity against human A549 cells after 48 hrs by SRB assay; assay type: functional, cell-based; details: A549, 48 h
SK-OV-3 = test: Cytotoxicity against human SKOV3 cells after 48 hrs by SRB assay; assay type: functional, cell-based; details: SK-OV-3, 48 h

Row | Structure (SMILES) | IC50 (A549) | IC50 (SK-OV-3)
1 | CC(=O)O[C@H]1C(=O)[C@@]2(C)[C@H]([C@H](OC(=O)c3ccccc3)[C@]3(O)C[C@H](OC(=O)[C@H](O)[C@@H](NC(=O)c4ccccc4)c4ccccc4)C(C)=C1C3(C)C)[C@]1(OC(C)=O)CO[C@@H]1C[C@@H]2O [PACLITAXEL] | 1.25 µM | 1.35 µM
2 | C=CC(C)(C)c1c(O)cc2oc3c(CC=C(C)C)c(O)c(O)cc3c(=O)c2c1O [CUDRAXANTHONE L] | 3.15 µM | 4.72 µM
3 | C=CC(C)(C)c1c(O)c(CC=C(C)C)c2oc3cc(O)c(O)cc3c(=O)c2c1O [MACLURAXANTHONE B] | 2.88 µM | 4.24 µM
4 | C=CC(C)(C)c1c(O)cc(O)c2c(=O)c3c(CC=C(C)C)c(O)c(O)cc3oc12 [CUDRATRICUSXANTHONE A] | 5.93 µM | 7.09 µM

Source: ChEMBL document CHEMBL1158719, “Cytotoxic xanthones from Cudrania tricuspidata” (J Nat Prod, 2005)
